Source: patent US20080280810A1, “PEPTIDES HAVING AFFINITY FOR BODY SURFACES” (priority 2006, published 2008)

What was measured:
[1] = Phage ELISA, bovine polished enamel binding assay; conditions: over 10^10 pfu purified phage, anti-M13 HRP conjugate, TMB, no phage control 0.193
Protocol: (§1) A total of 11 selected phage candidates (Example 32) was used in a phage ELISA experiment. Purified phage lysates were used for binding to the enamel blocks using an anti-M13 phage antibody conjugated to horseradish-peroxidase, followed by the addition of chromogenic agent TMB, obtained from Pierce Biotechnology (Rockford, Ill.). The plates were read at A450 nm.
(§2) For each phage candidate to be tested, the polished and unpolished enamel blocks were incubated for 1 h at room temperature with 200 μL of blocking buffer, consisting of 2% non-fat dry milk (Schleicher & Schuell, Inc.) in TBS. The blocking buffer was removed by aspirating the liquid out of each tube. The tube was rinsed 6 times with wash buffer consisting of TBST-0.05%. The wells were filled with 200 μL of TBST-0.5% containing 1 mg/mL BSA and then 10 μL (over 10^10 pfu) of purified phage stock was added. The samples were incubated at room temperature for 60 min with slow shaking. The non-binding phage was removed by washing 6 times with TBST-0.5%. Then, 100 μL of horseradish peroxidase/anti-M13 antibody conjugate (Amersham USA, Piscataway, N.J.), diluted 1:500 in the blocking buffer, was added and incubated for 1 h at room temperature. The conjugate solution was removed and was washed 6 times with TBST-0.5%. TMB substrate (200 μL), obtained from Pierce Biotechnology (Rockford, Ill.) was added to each well and the color was allowed to develop for 5 to 30 min, typically for 10 min, at room temperature. Then, stop solution (200 μL of 2 M H2SO4) was added to each well and the solution was transferred to a 96-well plate and the A450 was measured using a microplate spectrophotometer (Molecular Devices, Sunnyvale, Calif.). BoEn means bovine enamel and BoEn P means polished bovine enamel.

[2] = Phage ELISA, bovine enamel binding assay; conditions: over 10^10 pfu purified phage, anti-M13 HRP conjugate, TMB, no phage control 0.112
Protocol: as §1, §2

[3] = Co-application of multi-block peptide with semi-permanent dye (Arianor Ebony), color retention; design: species or system human; conditions: difference in Delta E between peptide sample and peptide free control after 3 embrocation cycles (about 12 manual shampoos); pH 8.5-9.0; >2 benefit, >4 substantial benefit
Protocol: (§3) A 0.5% aqueous solution of Arianor Ebony (Sensient Technologies Corp, Milwaukee, Wis.) containing 3% benzyl alcohol and 0.05% diazolidinyl urea (biocide) was prepared. Dye insolubles were removed by filtration and the pH of the dye solution was adjusted to 8.50-9.0, using ethanolamine.
(§4) Approximately 1 mL of the dye solution was added to selected wells of a 24-well plate (Thomson Instrument Co., Oceanside, Calif.; part # 931565). A multi-block peptide (see Table 12) was dissolved in a solution consisting of 3 wt % benzyl alcohol and 95 wt % water to yield a peptide concentration of 2 wt % or approximately 20 mg/mL. The pH was adjusted to 8.5-9.0 using ethanolamine. The peptide solution was then pipetted into test wells containing dye solution in the amount of 1 mL or 0.2 mL respectively. The total volume in each test well was then adjusted to 2 mL where necessary using 3% aqueous benzyl alcohol (pH adjusted to 8.5-9.0 with ethanolamine). Peptide free controls consisted of 1 mL of dye solution diluted to 2 mL with the pH adjusted aqueous benzyl alcohol solution.
(§5) Baseline […] readings were made on one inch long tresses (see below) using an X-RITE® SP78™ Sphere Spectrophotometer (X-Rite, Inc., Grandville, Mich.), by placing the hair tress into the photosensor and calculating L*, a* and b* parameters representing the photometer response. All measurements were the average of three individual determinations.
(§6) The tresses (potted on one end with resin) of natural white, 85% gray or regular bleached hair (International Hair Importers and Products, Bellerose, N.Y.) were immersed in the peptide/dye solution and the entire well plate was agitated on a VORTEX-GENIE® 2 Mixer (Scientific Industries, Bohemia, N.Y.) at a speed setting of 1 for 30 minutes. The tresses were removed from the wells, rinsed for 30 seconds under flowing deionized water and then air dried.
(§7) The following complement of beads was then added to each well containing a hair tress: (8 beads in all; 4 Novagen Coli Rollers Plating Beads—sterilized (EMD Biosciences, San Diego, Calif.; Catalog No. 71013), 2 BioSpec 6.35 mm glass beads (BioSpec Products, Bartlesville, Okla.; Catalog No. 11079635), and 2 BioSpec 3.2 mm Stainless Steel Bead (Catalog No. 11079132ss).
(§8) Then 2.5 mL of aqueous 50% Pantene Pro V® shampoo (Proctor & Gamble Co., Cincinnati, Ohio) was pipetted into each well. The plate was placed on a VWR® VX-2500 Multi-tube Vortexer (VWR, West Chester, Pa.) for 5 minutes to simulate shampooing with embrocation. The hair tresses were then rinsed under flowing deionized water and air dried. This cycle was repeated two more times except that the length of time was 10 minutes for both subsequent embrocation cycles. (This treatment was previously determined to simulate approximately 12 manual shampoo cycles.) At the conclusion of the third embrocation cycle L*, a* and b* values were measured and Delta E values (ΔE) were calculated using equation 1 below:
(§9) where L*=the lightness variable and a* and b* are the chromaticity coordinates of CIELAB colorspace as defined by the International Commission of Illumination (CIE) (Minolta, Precise Color Communication—Color Control From Feeling to Instrumentation, Minolta Camera Co., 1996).
(§10) The Delta E value (ΔE) indicates color retention relative to the non-dyed hair and larger Delta E values indicate better performance. Values listed in the table represent the difference in Delta E values between the peptide-containing sample and the peptide free control. This difference is indicative of color retention after shampoo or water rinse treatments and positive values indicate better performance relative to the peptide free controls (Table 12).

[4] = as above; design: species or system human; key: ΔE of peptide sample minus peptide-free control; larger = better retention; conditions: difference in Delta E between peptide sample and peptide free control after 3 embrocation cycles (about 12 manual shampoos); pH 8.5-9.0; >2 benefit, >4 substantial benefit
Protocol: as §3, §4, §5, §6, §7, §8, §9, §10

[5] = Color retention after shampoo treatment, peptide as sealant with Acid Red 33 dye; design: species or system human; conditions: 0.50 wt % Acid Red 33, peptide 0.25 wt %, 30 min contact, after one shampoo treatment; vs uncolored hair; larger = better color retention; dye alone 19.63
Protocol: The peptides used in this Example were prepared as described in Examples 1-3. The color retention was quantified using a spectrophotometric measurement technique.
A peptide given as SEQ ID NO:41, SEQ ID NO:42, or SEQ ID NO:43 (38 mg), produced via fermentation as described in Examples 1-3, was added to 15 g of an aqueous 0.50 wt % solution of Acid Red 33 (Abbey Color, Philadelphia, Pa.) and the solution was allowed to stir for 1 h. A natural white hair tress (1 cm wide, potted, International Hair Importers & Products Inc., Bellerose, N.Y.) was inserted into a 15 mm×125 mm test tube and 13 mL of the peptide/dye mixture was injected into the test tube. The hair tress was immersed in contact with the colorant solution for 30 min and the colorant solution was agitated using a magnetic stirrer. The tress was removed, allowed to drip dry, and then air dried for 30 min.
The hair tress was then subjected to a water rinse using copious amounts of deionized water, followed by a shampoo treatment with embrocation for 30 seconds. The shampoo treatment involved the application of Pantene Pro-V Sheer Volume shampoo (Proctor & Gamble, Cincinnati, Ohio) to the hair as follows. A quarter-sized drop of the shampoo was distributed evenly over the hair tress and then was massaged aggressively into the hair for 30 sec, after which the hair tress was rinsed with water to remove the shampoo. The hair tress was then dried at room temperature. The entire procedure described above was repeated without the addition of the hair-binding peptide to serve as a control.
The color intensity after the shampoo treatment was measured using an X-Rite® SP78™ Sphere Spectrophotometer (X-Rite, Inc., Grandville, Mich.), by placing the colored hair sample into the photosensor and calculating L*, a* and b* parameters representing the photometer response. An initial baseline L* value was measured for the uncolored hair and all measurements were the average of three individual determinations. Delta E values were calculated using equation 1 below: […]

[6] = Charged multi-block peptide applied to dyed hair (Arianor Sienna Brown, Basic Brown 17) as protective sealant, color loss; design: species or system human; key: ΔE color loss vs peptide-free control; ≥3 units = meaningful difference
Protocol: A 0.5% aqueous Arianor Sienna Brown (Basic Brown 17; Sensient Technologies Corp, Milwaukee, Wis.) solution, containing 3% benzyl alcohol and 0.05% diazolidinyl urea (biocide) was prepared. This dye solution was divided into two equal volumes, one unmodified at pH4 and a second portion adjusted to pH ranged from 8.50 to 9.0, using ethanolamine.
Minitresses (1 inch long) of natural white hair (International Hair Importers and Products, Bellerose, N.Y.) were immersed into the acidic or basic dye solutions for 30 minutes, water rinsed and then air dried overnight. The tresses were then cut into individual sections weighing 30-75 mg each. L*, a*, b* values for individual dyed hair tresses were then measured using a spectrophotometer.
Aqueous peptide solutions varying in concentration were adjusted by addition of ethanolamine to pH […] or made slightly basic (pH 8.5-9.0). The 3% benzyl alcohol diluent was also pH adjusted in the same fashion.
as §7, with “Each cavity of a well plate (Thomson Instrument Co. part no. 931565, 24-10 ml wells), contained the assortment” for “The following complement”, “beads” for “beads was then added to each well containing a hair tress:”
Target peptide and diluent were added using an automatic pipette. Controls without peptide were made using pH-adjusted diluent only. After several minutes of mixing (VORTEX-GENIE® 2, Scientific Industries, Bohemia, N.Y.) a small dyed hair tress was added to each well and stirred for 30 minutes on the vortex mixer. When stirring was complete, the hair tresses were removed from the wells and rinsed under running deionized water for 20-30 seconds.
The wet hair tresses were inserted into a modified well plate into which holes had been drilled to allow them to be air dried. Once the tresses were dried, colorimetric readings were taken for color loss after water rinse. Hair tresses were reinserted into their respective wells along with beads and 2.5 mL of aqueous 50% Pantene Pro V® shampoo was pipetted onto the hair. The plate was placed into a VWR® VX-2500 Multi-tube Vortexer (VWR, West Chester, Pa.) for 5-15 minutes to simulate shampooing with embrocation. The hair tresses were then rinsed under flowing deionized water and air dried. This cycle was repeated according to the number of simulated embrocation cycles desired. Colorimetric data for color loss was compiled and plotted against peptide free controls. A difference of at least 3 Delta E units verses controls was judged to be sufficient for differentiating peptide performance verses peptide free controls.

AANPHTEWDRDAFQLAMPPK [BoEn 1]
O.D. at 450 nm [1]: 1.402

EPPTRTRVNNHTVTVQAQQH [BoEn P2]
O.D. at 450 nm [2]: 0.641

GYCLRGDEPAVCSG [BoEn P3]
O.D. at 450 nm [2]: 0.665

KF11-GGG-GHGHQKQHGLGHGHKHGHGHGHGHGK (PNTSQLSTGGGGHGHQKQHGLGHGHKHGHGHGHGHGK; Peptide having affinity for hair) [HC 81]
ΔE Retention Ebony Dye with 85% Gray Hair [3]: 7.58 | ΔE Retention Ebony Dye Regular Bleached Hair [4]: −0.1 | ΔE Retention Ebony dye with Natural White Hair [4]: 0.6 | Delta E [5]: 31.57

LNDQRKPGPPTMPTHSPAVG [BoEn 5]
O.D. at 450 nm [1]: 0.944

NFCETQLDLSVCTV [BoEn P5]
O.D. at 450 nm [2]: 0.797

NTCATSPNSYTCSN [BoEn 6]
O.D. at 450 nm [1]: 2.38

NTCQPTKNATPCSA [BoEn P6]
O.D. at 450 nm [2]: 0.83

SDCTAGLVPPLCAT [BoEn 7]
O.D. at 450 nm [1]: 0.892

SSNYNYNYNYQYSSR (Peptide having affinity for hair) [Dye-1, reference compound]
ΔE Loss ([6]; pH 3.9, 12 shampoo equivalents): 14

SSNYNYNYNYQYSSR-EGEGER (SSNYNYNYNYQYSSREGEGER; Peptide having affinity for hair) [Dye-1 Anionic]
ΔE Loss ([6]; pH 4.5, 12 shampoo equivalents): 1.93 | ΔE Loss ([6]; pH 8.8, 12 shampoo equivalents): 0.34

SSNYNYNYNYQYSSR-KRKRKD (SSNYNYNYNYQYSSRKRKRKD; Peptide having affinity for hair) [Dye-1 Cationic]
ΔE Loss ([6]; pH 4.5, 25 shampoo equivalents): 6 | ΔE Loss ([6]; pH 8.7, 25 shampoo equivalents): 3.22

THNMSHFPPSGHPKRTAT [BoEn P8]
O.D. at 450 nm [2]: 2.02

VGTMKQHPTTTQPPRVSATN [BoEn 9]
O.D. at 450 nm [1]: 0.568

YSETPNDQKPNPHYKVSGTK [BoEn 10]
O.D. at 450 nm [1]: 3.942

B1: PG-PMMA9-GAG-PMMA9-GGSGPGSGG-KF11-GS(KGGGS)4-KF11-GGPWKK (peptide)
chain: PGIDTFYMSTMSHSGAGIDTFYMSTMSHSGGSGPGSGGNTSQLSTGSKGGGSKGGGSKGGGSKGGGSNTSQLSTGGPWKK
modifications: Peptide having affinity for hair
ΔE Loss ([6]; pH 5.7, 12 shampoo equivalents): 11.41

B2: PG-PMMA4A-GAG-PMMA4A-GGSGPGSGG-KF11-GGG-KF11-GGPKK (peptide)
chain: PGHTHHDTHKPWPTDAHRNSSVGAGHTHHDTHKPWPTDAHRNSSVGGSGPGSGGNTSQLSTGGGNTSQLSTGGPKK
modifications: Peptide having affinity for hair
ΔE Loss ([6]; pH 5.1, 12 shampoo equivalents): 11.56 | ΔE Loss ([6]; pH 8.8, 12 shampoo equivalents): 6.95
